Consider 22 compounds from US9938261B2, “Heterocyclic compounds and methods of use thereof” (AMBIT BIOSCIENCES CORPORATION, priority 2011, dated 2018).

As usually defined, the Kd is the free concentration of one partner at which half of the binding sites on the other are occupied at equilibrium, for simple one-to-one binding. High values mean weaker binding, low ones tighter binding.

Holding throughout (details): competition binding
One experiment has as its target T1, KIT (Homo sapiens, UniProt P10721).
T1 construct: made in house
As to the kind of experiment: Competition binding assay, KIT Kd. In a few lines:
(§1)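 Kinases as T7-phage fusions or HEK-293-expressed DNA-tagged constructs competed against immobilized biotinylated ligand on streptavidin beads, 1 h at room temperature in binding buffer. Bound kinase eluted and quantified by qPCR; Kd from eleven-point threefold dilution series.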

The next experiment deals with T2, FLT3 (Homo sapiens, UniProt P36888).
T2 construct: made in house
T2 sequence (P36888 27-993): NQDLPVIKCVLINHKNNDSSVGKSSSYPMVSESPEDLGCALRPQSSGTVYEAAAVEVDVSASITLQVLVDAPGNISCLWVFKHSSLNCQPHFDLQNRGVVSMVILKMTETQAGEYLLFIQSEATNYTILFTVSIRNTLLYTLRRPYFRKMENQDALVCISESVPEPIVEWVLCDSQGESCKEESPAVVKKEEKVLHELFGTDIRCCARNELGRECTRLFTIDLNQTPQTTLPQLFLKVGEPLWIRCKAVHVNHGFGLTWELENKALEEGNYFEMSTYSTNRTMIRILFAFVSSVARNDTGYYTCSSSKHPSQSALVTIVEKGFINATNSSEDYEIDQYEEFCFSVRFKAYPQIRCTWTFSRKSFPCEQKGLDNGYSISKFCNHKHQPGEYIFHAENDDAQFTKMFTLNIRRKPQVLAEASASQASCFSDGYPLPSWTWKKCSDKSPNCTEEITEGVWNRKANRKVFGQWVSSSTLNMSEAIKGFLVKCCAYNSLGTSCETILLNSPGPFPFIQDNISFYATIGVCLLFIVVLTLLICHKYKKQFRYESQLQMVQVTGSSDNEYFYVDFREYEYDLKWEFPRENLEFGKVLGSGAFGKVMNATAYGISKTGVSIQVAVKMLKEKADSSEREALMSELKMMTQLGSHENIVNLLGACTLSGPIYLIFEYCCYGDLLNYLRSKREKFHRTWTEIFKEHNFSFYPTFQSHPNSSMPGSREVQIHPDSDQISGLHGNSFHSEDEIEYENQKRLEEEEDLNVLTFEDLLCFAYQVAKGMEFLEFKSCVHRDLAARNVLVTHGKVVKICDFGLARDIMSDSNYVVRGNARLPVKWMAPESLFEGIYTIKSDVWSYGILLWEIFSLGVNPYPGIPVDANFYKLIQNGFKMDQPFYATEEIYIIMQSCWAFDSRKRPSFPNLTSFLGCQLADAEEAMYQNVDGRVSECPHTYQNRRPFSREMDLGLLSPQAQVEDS
The experiment in a line: Competition binding assay, FLT3 Kd. An outline of the steps: as §1

The next experiment concerns the target CSF1R (Homo sapiens, UniProt P07333). The experiment in a line: Competition binding assay, CSF1R Kd. The arrangement: made in house. In a few lines:
as §1

SMILES strings stand for the structures. Where only a bound is given, the exact number is not on record here.

T1 sequence (P10721 26-976): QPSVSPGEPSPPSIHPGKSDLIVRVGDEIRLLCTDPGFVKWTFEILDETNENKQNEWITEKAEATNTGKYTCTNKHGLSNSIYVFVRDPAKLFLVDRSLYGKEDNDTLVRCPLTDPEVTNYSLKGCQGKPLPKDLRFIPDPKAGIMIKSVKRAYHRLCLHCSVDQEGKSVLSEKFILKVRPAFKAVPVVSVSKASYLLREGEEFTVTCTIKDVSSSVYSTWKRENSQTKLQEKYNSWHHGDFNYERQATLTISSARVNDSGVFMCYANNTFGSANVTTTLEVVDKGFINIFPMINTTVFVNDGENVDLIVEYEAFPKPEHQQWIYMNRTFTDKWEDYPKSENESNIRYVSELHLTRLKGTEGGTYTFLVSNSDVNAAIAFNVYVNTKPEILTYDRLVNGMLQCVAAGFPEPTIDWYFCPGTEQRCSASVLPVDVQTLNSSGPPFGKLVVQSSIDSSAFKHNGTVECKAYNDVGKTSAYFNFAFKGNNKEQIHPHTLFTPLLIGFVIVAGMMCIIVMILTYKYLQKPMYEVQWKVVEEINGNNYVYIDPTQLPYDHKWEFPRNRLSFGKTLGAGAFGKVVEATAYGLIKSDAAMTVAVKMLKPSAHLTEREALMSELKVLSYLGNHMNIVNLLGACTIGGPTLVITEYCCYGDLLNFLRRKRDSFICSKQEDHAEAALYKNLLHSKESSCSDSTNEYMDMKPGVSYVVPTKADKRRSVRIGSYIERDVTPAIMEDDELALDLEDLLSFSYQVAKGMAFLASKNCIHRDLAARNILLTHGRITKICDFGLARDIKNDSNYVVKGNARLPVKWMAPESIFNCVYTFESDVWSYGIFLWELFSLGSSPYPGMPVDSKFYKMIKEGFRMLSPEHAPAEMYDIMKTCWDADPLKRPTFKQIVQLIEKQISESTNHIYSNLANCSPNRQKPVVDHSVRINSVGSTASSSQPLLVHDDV
CSF1R, sequence (P07333 20-972): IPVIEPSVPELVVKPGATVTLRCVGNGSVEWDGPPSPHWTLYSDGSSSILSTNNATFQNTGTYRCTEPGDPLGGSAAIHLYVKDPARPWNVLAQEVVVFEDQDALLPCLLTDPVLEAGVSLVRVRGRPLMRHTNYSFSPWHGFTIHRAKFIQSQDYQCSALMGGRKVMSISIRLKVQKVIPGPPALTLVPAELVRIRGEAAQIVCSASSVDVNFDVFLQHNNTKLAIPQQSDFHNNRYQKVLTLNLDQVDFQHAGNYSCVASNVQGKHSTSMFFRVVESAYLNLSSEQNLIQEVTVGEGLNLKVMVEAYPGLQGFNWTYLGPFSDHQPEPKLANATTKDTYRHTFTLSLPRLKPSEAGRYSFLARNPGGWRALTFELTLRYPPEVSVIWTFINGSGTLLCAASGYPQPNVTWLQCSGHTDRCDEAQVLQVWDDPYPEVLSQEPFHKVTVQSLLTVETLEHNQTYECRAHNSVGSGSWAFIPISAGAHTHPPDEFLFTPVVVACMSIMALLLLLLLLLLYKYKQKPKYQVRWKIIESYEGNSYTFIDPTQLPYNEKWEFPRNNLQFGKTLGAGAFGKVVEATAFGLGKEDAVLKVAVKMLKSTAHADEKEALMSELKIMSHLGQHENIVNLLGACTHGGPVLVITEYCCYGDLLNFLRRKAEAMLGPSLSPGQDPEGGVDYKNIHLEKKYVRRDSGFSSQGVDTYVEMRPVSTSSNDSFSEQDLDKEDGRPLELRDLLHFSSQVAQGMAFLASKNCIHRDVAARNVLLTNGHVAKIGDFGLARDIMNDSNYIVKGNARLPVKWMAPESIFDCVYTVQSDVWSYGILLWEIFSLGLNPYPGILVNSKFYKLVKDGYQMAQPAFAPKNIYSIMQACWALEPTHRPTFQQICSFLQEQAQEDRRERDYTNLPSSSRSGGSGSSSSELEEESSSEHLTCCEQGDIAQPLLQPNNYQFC

Consider `N#Cc1ccc2c(c1)ncn2Cc1ccc2nc(N[C@@H]3CCCC[C@H]3O)sc2c1` [Example 108, 1-((2-(((1R,2R)-2-hydroxycyclohexyl)amino)benzo[d]thiazol-6-yl)methyl)-1H-benzo[d]imidazole-5-carbonitrile], for which the equilibrium dissociation constant (Kd) at KIT was 500 to 2000 nM; at FLT3 it was greater than 5000 nM; at CSF1R, 5 to 20 nM.
For `CC(C)(O)c1cnc2c(c1)ncn2Cc1ccc2nc(N[C@@H]3CCCC[C@H]3O)sc2c1` [Example 109, (1R,2R)-2-((6-((6-(2-hydroxypropan-2-yl)-3H-imidazo[4,5-b]pyridin-3-yl)methyl)benzo[d]thiazol-2-yl)amino)cyclohexanol], the Kd at KIT was 100 to 500 nM; at FLT3, 1000 to 5000 nM; on CSF1R, 20 to 50 nM.
The corresponding values for `CC(=O)c1ccc2c(c1)ncn2Cc1ccc2nc(N[C@@H]3CCCC[C@H]3O)sc2c1` [Example 110, 1-(1-((2-(((1R,2R)-2-hydroxycyclohexyl)amino)benzo[d]thiazol-6-yl)methyl)-1H-benzo[d]imidazol-5-yl)ethanone] are 100 to 500 nM, 1000 to 5000 nM and no more than 5 nM.
Take `N#Cc1ccc2ncn(Cc3ccc4nc(N[C@@H]5CCCC[C@H]5O)sc4c3)c2c1` [Example 111, 1-((2-(((1R,2R)-2-hydroxycyclohexyl)amino)benzo[d]thiazol-6-yl)methyl)-1H-benzo[d]imidazole-6-carbonitrile]: the Kd lay within 500 to 2000 nM on KIT, 1000 to 5000 nM at FLT3 and 5 to 20 nM on CSF1R.
For `CS(=O)(=O)c1ccc2c(c1)ncn2Cc1ccc2nc(N[C@@H]3CCCC[C@H]3O)sc2c1` [Example 112, (1R,2R)-2-((6-((5-(methylsulfonyl)-1H-benzo[d]imidazol-1-yl)methyl)benzo[d]thiazol-2-yl)amino)cyclohexanol], the Kd on KIT was in the range of 500 to 2000 nM; at FLT3 it was 1000 to 5000 nM; on CSF1R, 20 to 50 nM.
Taken in the same sequence, the figures for `CS(=O)(=O)c1ccc2ncn(Cc3ccc4nc(N[C@@H]5CCCC[C@H]5O)sc4c3)c2c1` [Example 113, (1R,2R)-2-((6-((6-(methylsulfonyl)-1H-benzo[d]imidazol-1-yl)methyl)benzo[d]thiazol-2-yl)amino)cyclohexanol] were 500 to 2000 nM, 1000 to 5000 nM and 20 to 50 nM.
Consider `O[C@@H]1CCCC[C@H]1Nc1nc2ncc(Cn3cnc4cccnc43)cc2s1` [Example 114, (1R,2R)-2-((6-((3H-imidazo[4,5-b]pyridine-3-yl)methyl)thiazolo[4,5-b]pyridine-2-yl)amino)cyclohexanol], for which the Kd was 100 to 500 nM on KIT, 1000 to 5000 nM on FLT3 and greater than 50 nM on CSF1R.
Turning to `CC(O)c1cnc2c(c1)ncn2Cc1ccc2nc(N[C@@H]3CCCC[C@H]3O)sc2c1` (stereo partly drawn) [Example 115, (1R,2R)-2-((6-((6-((R,S)-1-hydroxyethyl)-3H-imidazo[4,5-b]pyridin-3-yl)methyl)benzo[d]thiazol-2-yl)amino)cyclohexanol], the Kd at KIT was 500 to 2000 nM; at FLT3 it was 1000 to 5000 nM; on CSF1R it was greater than 50 nM.
Taken in the same sequence, the figures for `N#Cc1ccn2c(Cc3ccc4nc(N[C@@H]5CCCC[C@H]5O)sc4c3)cnc2c1` [Example 117, 3-((2-(((1R,2R)-2-hydroxycyclohexyl)amino)benzo[d]thiazol-6-yl)methyl)imidazo[1,2-a]pyridine-7-carbonitrile] were greater than 2000 nM, greater than 5000 nM and 5 to 20 nM.
As to `O[C@@H]1CCCC[C@H]1Nc1nc2ccc(Cn3cnc4cncnc43)cc2o1` [Example 118, (1R,2R)-2-((6-((9H-purin-9-yl)methyl)benzo[d]oxazol-2-yl)amino)cyclohexanol], the results for the Kd at KIT, at FLT3 and on CSF1R were 100 to 500 nM, 1000 to 5000 nM and 20 to 50 nM, respectively.
As to `Cc1cc2ncn(Cc3ccc4nc(N[C@@H]5CCCC[C@H]5O)sc4c3)c2cc1C` [Example 119, (1R,2R)-2-((6-((5,6-dimethyl-1H-benzo[d]imidazol-1-yl)methyl)benzo[d]thiazol-2-yl)amino)cyclohexanol], the Kd at KIT is no more than 100 nM; on FLT3, 200 to 1000 nM; at CSF1R, 5 to 20 nM.
Consider `CC(=O)c1ccc2ncn(Cc3ccc4nc(N[C@@H]5CCCC[C@H]5O)sc4c3)c2c1` [Example 120, 1-(1-((2-(((1R,2R)-2-hydroxycyclohexyl)amino)benzo[d]thiazol-6-yl)methyl)-1H-benzo[d]imidazol-6-yl)ethanone], for which the Kd on KIT lay within 100 to 500 nM; at FLT3, 1000 to 5000 nM; on CSF1R, 5 to 20 nM.
On to `C#Cc1ccc2c(c1)ncn2Cc1ccc2nc(N[C@@H]3CCCC[C@H]3O)sc2c1` [Example 121, (1R,2R)-2-((6-((5-ethynyl-1H-benzo[d]imidazol-1-yl)methyl)benzo[d]thiazol-2-yl)amino)cyclohexanol], for which the Kd on KIT fell in the range of 100 to 500 nM; at FLT3, 1000 to 5000 nM; on CSF1R it was 5 to 20 nM.
With `C#Cc1ccc2ncn(Cc3ccc4nc(N[C@@H]5CCCC[C@H]5O)sc4c3)c2c1` [Example 122, (1R,2R)-2-((6-((6-ethynyl-1H-benzo[d]imidazol-1-yl)methyl)benzo[d]thiazol-2-yl)amino)cyclohexanol], the Kd on KIT is 100 to 500 nM; at FLT3, 200 to 1000 nM; at CSF1R it was 5 to 20 nM.
Taken in the same sequence, the figures for `COc1nc2c(cc1Br)ncn2Cc1ccc2nc(N[C@@H]3CCCC[C@H]3O)sc2c1` [Example 123, (1R,2R)-2-((6-((6-bromo-5-methoxy-3H-imidazo[4,5-b]pyridin-3-yl)methyl)benzo[d]thiazol-2-yl)amino)cyclohexanol] were no more than 100 nM, 200 to 1000 nM and 5 to 20 nM.
Consider `N#Cc1cnc2c(c1)ncn2Cc1ccc2nc(N[C@@H]3CCCC[C@H]3O)oc2c1` [Example 124, 3-((2-(((1R,2R)-2-hydroxycyclohexyl)amino)benzo[d]oxazol-6-yl)methyl)-3H-imidazo[4,5-b]pyridine-6-carbonitrile], for which the Kd at KIT was no more than 100 nM; at FLT3 it was 200 to 1000 nM; on CSF1R, 5 to 20 nM.
The corresponding values for `O[C@@H]1CCCC[C@H]1Nc1nc2ccc(Cc3cnc4cnccn34)cc2s1` [Example 125, (1R,2R)-2-((6-(imidazo[1,2-a]pyrazin-3-ylmethyl)benzo[d]thiazol-2-yl)amino)cyclohexanol] are 500 to 2000 nM, 1000 to 5000 nM and 5 to 20 nM.
In the case of `COc1nc2c(cc1C#N)ncn2Cc1ccc2nc(N[C@@H]3CCCC[C@H]3O)sc2c1` [Example 126, 3-((2-(((1R,2R)-2-hydroxycyclohexyl)amino)benzo[d]thiazol-6-yl)methyl)-5-methoxy-3H-imidazo[4,5-b]pyridine-6-carbonitrile], the figures for the Kd at KIT, at FLT3 and at CSF1R were 100 to 500 nM, 200 to 1000 nM and 5 to 20 nM, respectively.
Taken in the same sequence, the figures for `Cc1ccc2c(c1)ncn2Cc1ccc2nc(N[C@@H]3CCCC[C@H]3O)sc2c1` [Example 127, (1R,2R)-2-((6-((5-methyl-1H-benzo[d]imidazol-1-yl)methyl)benzo[d]thiazol-2-yl)amino)cyclohexanol] were 100 to 500 nM, 1000 to 5000 nM and 5 to 20 nM.
On to `O[C@@H]1CCCC[C@H]1Nc1nc2ccc(Cn3cnc4cc(F)c(F)cc43)cc2s1` [Example 128, (1R,2R)-2-((6-((5,6-difluoro-1H-benzo[d]imidazol-1-yl)methyl)benzo[d]thiazol-2-yl)amino)cyclohexanol], for which the Kd is 100 to 500 nM at KIT, greater than 5000 nM on FLT3 and 5 to 20 nM on CSF1R.
Regarding `O[C@@H]1CCCC[C@H]1Nc1nc2ccc(Cn3cnc4cc(F)ccc43)cc2s1` [Example 129, (1R,2R)-2-((6-((5-fluoro-1H-benzo[d]imidazol-1-yl)methyl)benzo[d]thiazol-2-yl)amino)cyclohexanol], the results for the Kd on KIT, at FLT3 and at CSF1R were no more than 100 nM, 1000 to 5000 nM and no more than 5 nM, respectively.
On to `O[C@@H]1CCCC[C@H]1Nc1nc2ccc(Cn3cnc4cc(C(F)(F)F)ccc43)cc2s1` [Example 130, (1R,2R)-2-((6-((5-(trifluoromethyl)-1H-benzo[d]imidazol-1-yl)methyl)benzo[d]thiazol-2-yl)amino)cyclohexanol], for which the figures for the Kd at KIT, at FLT3 and on CSF1R were 100 to 500 nM, 1000 to 5000 nM and 5 to 20 nM, respectively.
